row,Structure (SMILES),melting point [°C]
1,O=C(O)C(F)(F)C(F)(F)C(F)(F)C(F)(F)C(F)(F)C(F)(F)C(F)(F)C(F)(F)C(F)(F)C(F)(F)C(F)(F)C(F)(F)F,118 to 122
2,OCCCC#CC#CCCCO,45.5 to 47
3,CCOC(CN1C(=O)c2ccccc2C1=O)OCC,72 to 74
4,CCN(CC)C(=O)C(Cl)(Cl)Cl,27
5,Cn1cc(C=O)c2ccccc21,69
6,COC(=O)c1cc2c(s1)-c1cc(Cl)ccc1SC2,158 to 160
7,Cc1ccc(Cc2ccc(CP(=O)(c3ccccc3)c3ccccc3)o2)o1,220 to 221
8,CC1CCC2(NC1)OC1CC3C4CCC5CC(O)CCC5(C)C4CCC3(C)C1C2C (stereo unspecified),210
9,Cc1nn(C)c(N2CCOCC2)c1C=O,74 to 76
10,COc1ccc(C(=O)Cl)cc1OC,71
11,CN1CCN(c2ccc(CO)cc2)CC1,118 to 119
12,O=C(Nc1ccccc1)C1Cc2ccccc21 (stereo unspecified),161
13,Cc1cc([N+]([O-])=Nc2ccccc2)ccc1N=Nc1ccccc1,103
14,O=C(O)C(c1ccccc1)C1CCCC1 (stereo unspecified),96 to 100
15,O=C1NC(=S)NC(=O)C1=NNc1ccccc1[N+](=O)[O-],330
16,CNc1ccc(C(=O)OC)cc1,95
17,C=CCc1cc2c(c(OC)c1OC)OCO2,29.5
18,CC(=O)c1ccc2c(c1)OCCO2,83
19,Nc1ccc(C(=O)Oc2ccccc2)c(O)c1,153
20,O=C(O)C=CCCl,83
21,N[C@H](C(=O)O)c1ccc(F)cc1,300
22,FC(F)(F)c1cc(Cl)cc(Cl)c1,-13 to -12

row,Structure (SMILES),melting point [°C]
1,CC1=C(C=NNC(N)=O)C(=O)C(C(C)C)C=C1 (stereo unspecified),221 to 222
2,C=CCN1CCC23c4c5ccc(O)c4OC2C(O)C=CC3C1C5 (stereo unspecified),208
3,O=C(CC(=O)c1cc(Br)ccc1O)c1ccccc1,100 to 103
4,O=Cc1c(-c2ccccc2)nc2n1CCS2,127 to 128
5,CN(C)S(=O)(=O)Cl,-13
6,CC(C)(C)c1ccc(OC(=O)c2ccccc2O)cc1,62
7,O=C1CCCN1c1ccc([N+](=O)[O-])cc1,128 to 130
8,Nc1ccc(Br)c([N+](=O)[O-])c1,128 to 132
9,CCOC(=O)ON=C(C(=O)c1ccccc1)c1ccccc1,73 to 75
10,O=C1C2ON(c3ccccc3)C(c3ccccc3)C2C(=O)N1c1ccccc1 (stereo unspecified),151 to 152
11,NC(=S)Nc1ccc(Cl)cc1,177 to 181
12,NC(CCc1ccccc1)CC(=O)O (stereo unspecified),223 to 227
13,CC(=O)C(C#N)(Cc1ccc([N+](=O)[O-])cc1)c1ccccc1 (stereo unspecified),82
14,Nc1c(Cl)c(Cl)nc(C(=O)O)c1Cl,218
15,COc1ccc(N=C=S)c(OC)c1,52
16,O=C(CNc1cccc([N+](=O)[O-])c1)c1ccccc1,169
17,O=[N+]([O-])c1cc(I)cc([N+](=O)[O-])c1,101
18,S=C(NC1CCCCC1)C(=S)NC1CCCCC1,150 to 152
19,CCOC(=O)CSCCC1NC(C(=O)O)CS1 (stereo unspecified),142
20,CC1(C2CCC3C4CCC5CC(O)CCC5(C)C4CCC32C)OCCO1 (stereo unspecified),174
21,CC1(C)CC(C)(c2ccc(O)cc2)c2ccccc2O1 (stereo unspecified),140
22,OC1(c2ccccc2)c2ccccc2-c2ccccc21,107 to 110

row,Structure (SMILES),melting point [°C]
1,N#CCc1ccc(OCc2c(F)cccc2Cl)cc1,78 to 79
2,CC1CC(OC(=O)c2ccccc2)CC(C)(C)N1 (stereo unspecified),70.5
3,OCC1C2C=CC(C2)C1CO (stereo unspecified),85 to 85.5
4,O=Cc1ccc(OCc2ccccc2)c(Cl)c1,93 to 94
5,Nc1nnc(Br)s1,168 to 169
6,CCCCCCCCCCCC[N+]1=C(C=Cc2cc([N+](=O)[O-])cc([N+](=O)[O-])c2[O-])C(C)(C)c2ccccc21,138
7,Nc1ccc([N+](=O)[O-])c(F)c1,160
8,Nc1ccc(Br)cc1N,62 to 64
9,O=c1c(=O)c2cc(Cl)c(Cl)cc12,183
10,COC(=O)Cc1cccc(OCc2ccccc2)c1,34 to 37
11,CC1CN(C2CCCCCCCCCCC2)CC(C)O1 (stereo unspecified),71
12,O=C(O)CSCC(=O)O,129
13,O=c1[nH]cc(Cl)c(=O)[nH]1,300
14,O=Cc1ccccc1OC1OC(CO)C(O)C(O)C1O (stereo unspecified),178
15,NS(=O)(=O)c1ccc(SCCO)c([N+](=O)[O-])c1,151
16,C=C(C)CCCCC,-90
17,CCCCCCCOCC,-68.3
18,CCCC(C)OC(C)=O (stereo unspecified),-100
19,Sc1nnc(-c2ccco2)n1-c1ccc(OCc2ccccc2)cc1,236 to 238
20,CCC(C)c1cccc(C(C)CC)c1O (stereo unspecified),-42
21,CNC(=S)Nc1cc(OC)c(OC)cc1C(c1ccc(C)o1)c1ccc(C)o1,165
22,Cn1c(=O)c(C2=NNC(=O)C2=NNc2cccnc2)c(O)c2ccccc21,230

row,Structure (SMILES),melting point [°C]
1,CC(C=Cc1ccc(C=CC(C)=NO)cc1)=NO,280
2,CCCCC(O)C(C)C (stereo unspecified),-85
3,FC(F)(F)c1cccc(Br)c1,1
4,CC(=O)OC1CC(=O)OC1=O (stereo unspecified),55
5,OCc1ccc(OCc2ccccc2)cc1,86
6,O=C(CCl)c1ccc(C(=O)CCl)cc1,153
7,COC(=O)c1cc(S(=O)(=O)Cl)oc1C,35 to 38
8,O=c1[nH]c2ccccc2n1C1=CCNCC1,195 to 200
9,Cc1sc(-c2ccncc2)nc1-c1ccccc1,84
10,COc1ccc(C(C#N)C(C)=O)c(Cl)c1 (stereo unspecified),79
11,Nc1nnc(-c2ccc([N+](=O)[O-])cc2)s1,202 to 204
12,Cc1cc(C)c(C)c(O)c1C,118
13,CN(C)c1ccc(C=CC=O)cc1,140
14,Oc1c(Br)cc(Br)c(Br)c1Br,114
15,CC(=O)N1CCSC1C(=O)O (stereo unspecified),114 to 116
16,c1ccc2c(c1)Cc1c-2ccc2ccccc12,190
17,O=[N+]([O-])c1ccc(I)c([N+](=O)[O-])c1,89
18,CC#CCCCCC,-61.6
19,CCOC(=O)C1=NN(c2ccccc2)C(=O)C1CC1C(=O)N(c2ccccc2)N=C1C(=O)OCC (stereo unspecified),179
20,COc1c(OC)c(OC(C)=O)c2c(Cl)cccc2c1OC(C)=O,134
21,CN1C(=O)C(=NNC(N)=S)c2ccccc21,245
22,c1ccc(Cc2ccc3c4ccccc4c4ccccc4c3c2Cc2ccccc2)cc1,178

row,Structure (SMILES),melting point [°C]
1,O=C(NCc1ccc(S(=O)(=O)Cl)s1)c1ccccc1,123 to 125
2,CC(=O)NC1C2CCC(C)(C1NC(C)=O)C2(C)C (stereo unspecified),309
3,CCOP(=S)(OCC)SCSC(C)(C)C,-29.2
4,Cc1csc2ccc(Cl)cc12,35
5,Brc1cccc(-c2cc[nH]n2)c1,73 to 74
6,COC(OC)c1ccc(C#N)c(S)n1,137 to 139
7,CCNc1cccc(O)c1,62
8,O=Cc1cc(O)cc(O)c1,160
9,COc1cc2c(cc1OC)C(c1ccc(Cl)cc1)N(C(C)=O)CC2 (stereo unspecified),130 to 132
10,NC1(P(=O)(O)O)CCCC1,274 to 276
11,CC(C)Oc1cc(N)c(Cl)cc1Cl,42
12,COc1ccc(C=C2SC(=S)N(CNc3ccc([N+](=O)[O-])cc3)C2=O)cc1,176
13,COC(=O)c1cc2cc3c(cc2cc1C(=O)OC)CC3,124
14,O=CNc1ccc(Cl)cc1C(=O)c1ccccc1,89 to 91
15,C1=C(c2ccccc2)Cc2ccccc21,166 to 167
16,CCOc1cc(C(=O)O)cc(OCC)c1OCC,112
17,Cn1nc(-c2cccs2)cc1C=O,76 to 77
18,Oc1noc2nc3ccccc3nc12,320 to 325
19,NC(=O)COc1cccc(Cl)c1,123 to 126
20,Cc1nc(-c2cccc(N=C=O)c2)no1,72 to 74
21,CCP(=O)(CC)CC,52 to 53
22,Cc1nc2cc(Cl)ccc2o1,54 to 57

row,Structure (SMILES),melting point [°C]
1,CC(Cl)(Cl)C(=O)O,-5
2,O=C(Cc1ccccc1)c1ccc(O)cc1O,112 to 117
3,c1ccc(-c2cccc3ccccc23)cc1,45
4,CCC1(C)C=C/C(=N\NS(=O)(=O)c2ccc(C)cc2)CC1 (stereo unspecified),159 to 169
5,Cc1ncc([N+](=O)[O-])n1CC(O)CCl (stereo unspecified),77.5
6,CC1(C)CC(=O)C(=NNc2ccc(Br)cc2)C(=O)C1,204
7,CCOC(=O)c1nn(-c2ccc(C)cc2)c(C)c1C(=O)C1=NOC2C(=O)N(c3ccccc3C)C(=O)C12 (stereo unspecified),200
8,Cc1cc(C)cc(C(=O)N(NC(=O)c2ccccc2)C(C)(C)C)c1,206
9,O=C(CBr)c1ccc2c(c1)OCCCO2,78 to 80
10,O=C(O)c1cccc2cc[nH]c12,202 to 204
11,COC1=C(OC)C(C(O)COS(=O)(=O)c2ccc(C)cc2)OC1=O (stereo unspecified),88 to 90
12,CN(C)c1ccc(C=C(C#N)c2ccc(Cl)c(Cl)c2)cc1,213 to 214
13,Cc1cccc(Cl)c1I,27
14,Cc1ccc(C)c(N/N=C(/C#N)c2nc3ccccc3c(=O)[nH]2)c1,205
15,CC(CCC(=O)O)C1CCC2C(C(=O)O)C(C3(C)CCCCC3C(=O)O)CCC12C (stereo unspecified),265 to 267
16,COc1ccc(C(=O)C(=O)c2ccc(OC)cc2)cc1,131 to 134
17,COc1ccc(C2(C(=O)O)CC2)cc1,127 to 132
18,CCCC(C)CC (stereo unspecified),-119
19,OC(CCl)C(O)CCl (stereo unspecified),126
20,BrCC(Br)c1cccc(C(Br)CBr)c1 (stereo unspecified),65
21,NC(=O)c1ccc2ccccc2c1,195

# From a melting point compilation (Tetko et al.)
